Data published in patent US11622984B2, “Composition comprising aster sphathulifolius maxim extract for preventing, improving, or treating muscular diseases or for improving muscular functions” (NEWTREE CO., LTD., priority 2018, dated 2023).

Legend:
Format in all cases: in vivo, C57BL/6 mice
atrogin-1 = assay: qRT-PCR mRNA expression in gastrocnemius of muscle atrophy mouse model; settings: 370 mg/kg oral, 14 days, induction group about three times
Experimental: (§1) An animal experiment was conducted to confirm whether an Aster spathulifolius extract improved muscle atrophy in a muscle atrophy mouse model. Five-week-old male C57BL/6 mice were adapted to an animal laboratory environment for one week, and then divided into five groups according to an experimental condition, and immobilization of the legs to induce muscle atrophy and oral administration of samples were performed for two weeks. […] After 2 weeks of leg fixation and oral administration of the sample, the gastrocnemius and the quadriceps of one hind leg were extracted, and the weights thereof were measured, normalized in proportion to the body weight, and then compared and shown in FIG. 1. […]
(§2) To confirm whether the Aster spathulifolius extract improved the mRNA expression levels of muscle atrophy-related factors, muscle ring finger-1 (MuRF-1) and Atrogin-1, in a muscle atrophy mouse model, quantitative real-time PCR (qRT-PCR) was performed. […]

murf-1 = assay: as above; settings: 370 mg/kg oral, 14 days, induction group about 3 times
Experimental: as §1, §2

p-mTOR = assay: Western blot protein expression in gastrocnemius of muscle atrophy mouse model; settings: 370 mg/kg oral, 14 days
Experimental: as §1, with “weeks. Specifically, experimental groups were divided into an untreated control group (normal group, Cont), a muscle atrophy induced group (induction group, IM), a positive control group (HMB administered group, HMB 370) induced with muscle atrophy and administered with beta-hydroxy beta-methylbutyrate (HMB) (370 mg/kg), a group (Aster spathulifolius low-dose administered group, AS 100) induced with muscle atrophy and administered with a low dose (100 mg/kg) of Aster spathulifolius extract, and a group (Aster spathulifolius high-dose administered group, AS 200) induced with muscle atrophy and administered with a high dose (200 mg/kg) of Aster spathulifolius extract.” for “weeks.”

[1] = tested on: muscle atrophy mouse model; assay: Cross-sectional area of muscle fibers (H&E staining, image J) in muscle atrophy mouse model; settings: 370 mg/kg oral, 14 days
Experimental: (§3) An animal experiment was conducted to confirm whether an Aster spathulifolius extract improved muscle atrophy in a muscle atrophy mouse model. Five-week-old male C57BL/6 mice were adapted to an animal laboratory environment for one week, and then divided into five groups according to an experimental condition, and immobilization of the legs to induce muscle atrophy and oral administration of samples were performed for two weeks. Specifically, experimental groups were divided into an untreated control group (normal group, Cont), a muscle atrophy induced group (induction group, IM), a positive control group (HMB administered group, HMB 370) induced with muscle atrophy and administered with beta-hydroxy beta-methylbutyrate (HMB) (370 mg/kg), a group (Aster spathulifolius low-dose administered group, AS 100) induced with muscle atrophy and administered with a low dose (100 mg/kg) of Aster spathulifolius extract, and a group (Aster spathulifolius high-dose administered group, AS 200) induced with muscle atrophy and administered with a high dose (200 mg/kg) of Aster spathulifolius extract. Immobilization of the legs was performed by applying a fixing tool manufactured by using a 1.5 ml microfuge tube, clips, and a Velcro tape as shown in References (Disease models & mechanisms, 8(9), 1059-1069, 2015) to one hind leg of the mouse. All samples were dissolved in 0.5% carboxymethylcellulose (CMC) and orally administered once a day for 14 days from a day of application of leg fixation. After 2 weeks of leg fixation and oral administration of the sample, the gastrocnemius and the quadriceps of one hind leg were extracted, and the weights thereof were measured, normalized in proportion to the body weight, and then compared and shown in FIG. 1. As a result, compared to the normal group (Cont), the induction group (IM) induced muscle atrophy, resulting in a weight loss of about 40% in the gastrocnemius and about 33% in the quadriceps in proportion to the body weight. In the HMB-administered group (HMB 370), as the positive control group, the gastrocnemius decreased by about 24% and the quadriceps decreased by about 17%, showing about 16% and 16% of a muscle atrophy protective ability, respectively. On the other hand, in the low-dose group of Aster spathulifolius (AS 100), the gastrocnemius decreased by about 27% and the quadriceps decreased by about 22%. In the high-dose group of Aster spathulifolius (AS 200), the gastrocnemius decreased by about 25% and the quadriceps decreased by about 18%.
Histological analysis was conducted to confirm whether an Aster spathulifolius extract improved the reduction in cross-sectional area of muscle fibers in a muscle atrophy mouse model. The gastrocnemius and quadriceps tissues extracted in Example 2 above were fixed with 4% paraformaldehyde and then subjected to hematoxylin and eosin staining (H&E staining), and thereafter, the cross-sectional area of the dyed muscle fibers was quantified through image J software, and the results were shown in FIGS. 2 and 3.

[2] = tested on: muscle atrophy mouse model; assay: Muscle tissue weight in leg-immobilization muscle atrophy mouse model
Experimental: as §3

CC(C)(O)CC(=O)O [HMB, beta-hydroxy beta-methylbutyrate]
atrogin-1 gene expression relative to normal group (atrogin-1): about 1.3 times | murf-1 gene expression relative to normal group (murf-1): about 1.7 times | p-mTOR protein expression (p-mTOR): large increase | protective ability against the cross-sectional area of muscle fibers, gastrocnemius [1]: 17% | protective ability against the cross-sectional area of muscle fibers, quadriceps [1]: 19% | reduction in muscle fiber size (H&E staining) ([1]; both muscle tissues): the reduction in muscle fiber size was alleviated | decrease of cross-sectional area of muscle fiber vs normal group, quadriceps ([1]; induction group about 47%): about 28% | decrease of cross-sectional area of muscle fiber vs normal group, gastrocnemius ([1]; induction group about 50%): about 33% | quadriceps weight decrease in proportion to body weight vs normal group ([2]; 370 mg/kg oral once a day, 14 days leg fixation, induction group about 33%): about 17% | gastrocnemius weight decrease in proportion to body weight vs normal group ([2]; 370 mg/kg oral once a day, 14 days leg fixation, induction group about 40%): about 24% | muscle atrophy protective ability (muscle weight), gastrocnemius ([2]; 370 mg/kg oral, 14 days): about 16% | muscle atrophy protective ability (muscle weight), quadriceps ([2]; 370 mg/kg oral, 14 days): about 16%
